Data: patent US20230416329A1, “A PEPTIDE WITH DISULFIDE BONDS AND INHIBITORY ACTIVITY AGAINST SERINE PROTEASES, DERIVED HYBRID PEPTIDES THEREOF, AND USES THEREOF” (INSTITUTE OF MATERIA MEDICA , CHINESE ACADEMY OF MEDICAL …, priority 2020, published 2023)
Values belong to the compound of their own block, whether it stands above or below them. Bridge positions count the residues as written; N and C are the ends. Square brackets hold non-standard residues; d marks the D form. Peptide text beside a SMILES is read from it. Hyp = O=C(O)[C@@H]1C[C@@H](O)CN1; hCys = N[C@@H](CCS)C(=O)O

Molecular target: T1, bovine trypsin (Bos taurus, UniProt P00760)
T1 sequence (P00760 24-246): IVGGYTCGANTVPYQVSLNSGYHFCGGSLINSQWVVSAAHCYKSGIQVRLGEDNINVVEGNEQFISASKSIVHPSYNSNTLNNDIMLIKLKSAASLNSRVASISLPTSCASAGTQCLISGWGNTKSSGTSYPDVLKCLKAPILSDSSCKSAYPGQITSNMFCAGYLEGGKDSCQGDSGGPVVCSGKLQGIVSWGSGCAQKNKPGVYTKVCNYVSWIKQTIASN
Test: Trypsin inhibitory activity of peptides (BApNA hydrolysis, OD405; IC50, Ki, residual activity)
Format: biochemical
Conditions: for IC50: trypsin 50 nM, BApNA 1.22 mM, read-out: IC50
Method in brief: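 Trypsin (50 nM final) preincubated with peptides at 37 °C in 50 mM Tris-HCl pH 7.8, 20 mM CaCl2; BApNA added (1.22 mM final), 260 min at 37 °C, then OD405 read. Residual activity from enzyme-only and substrate-only controls; IC50 fitted and converted to Ki via Ki=IC50/(1+S/Km), Km measured separately for BApNA.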

SMILES: CC[C@H](C)[C@@H]1NC(=O)[C@@H]2CCCN2C(=O)[C@@H]2CCCN2C(=O)[C@H]([C@@H](C)CC)NC(=O)[C@H](CO)NC(=O)[C@H](CCCCN)NC(=O)[C@H]([C@@H](C)O)NC(=O)[C@H](C)NC(=O)[C@H](CCCNC(=N)N)NC(=O)CNC(=O)[C@@H](N)CCSSCC[C@@H](C(=O)O)NC(=O)[C@H](Cc2ccccc2)NC(=O)[C@H](C)NC1=O [BT29] (H-[hCys]GRATKSIPPIAF[hCys]-OH; disulfide 1-14; N-terminus assumed)
- inhibitory activity against trypsin (in words): still maintained good inhibitory activity against trypsin

SMILES: CC[C@H](C)[C@@H]1NC(=O)[C@@H]2CCCN2C(=O)[C@@H]2CCCN2C(=O)[C@H]([C@@H](C)CC)NC(=O)[C@H](CO)NC(=O)[C@H](CCCCN)NC(=O)[C@H]([C@@H](C)O)NC(=O)[C@H](C)NC(=O)[C@H](CCCNC(=N)N)NC(=O)CNC(=O)[C@@H](N)CSSC[C@@H](C(=O)O)NC(=O)CNC(=O)[C@H](Cc2ccccc2)NC(=O)[C@H](C)NC1=O [BT32] (H-CGRATKSIPPIAFGC-OH; disulfide 1-15; N-terminus and C-terminus assumed)
- inhibitory activity against trypsin (in words): still maintained good inhibitory activity against trypsin

SMILES: CC[C@H](C)[C@@H]1NC(=O)[C@@H]2CCCN2C(=O)[C@@H]2CCCN2C(=O)[C@H]([C@@H](C)CC)NC(=O)[C@H](CO)NC(=O)[C@H](CCCCN)NC(=O)[C@H]([C@@H](C)O)NC(=O)[C@H](C)NC(=O)[C@H](CCCNC(=N)N)NC(=O)CNC(=O)[C@@H](N)CCSSCC[C@@H](C(=O)O)NC(=O)CNC(=O)[C@H](Cc2ccccc2)NC(=O)[C@H](C)NC1=O [BT33] (H-[hCys]GRATKSIPPIAFG[hCys]-OH; disulfide 1-15; N-terminus assumed)
- inhibitory activity against trypsin (in words): still maintained good inhibitory activity against trypsin

SMILES: CC[C@H](C)[C@@H]1NC(=O)[C@H](CO)NC(=O)[C@H](CCCCN)NC(=O)[C@H]([C@@H](C)O)NC(=O)[C@H](Cc2c[nH]c3ccccc23)NC(=O)[C@H](CCCNC(=N)N)NC(=O)CNC(=O)[C@@H](N)CSSC[C@@H](C(=O)O)NC(=O)[C@H](Cc2ccccc2)NC(=O)[C@H](C)NC(=O)[C@@H]2CCCN2C(=O)[C@@H]2CCCN2C1=O [BT39] (H-CGRWTKSIPPAFC-OH; disulfide 1-13 (inferred); N-terminus and C-terminus assumed)
- IC50: > 50 µM

SMILES: CC[C@H](C)[C@@H]1NC(=O)[C@@H]2CCCN2C(=O)[C@@H]2CCCN2C(=O)[C@H]([C@@H](C)CC)NC(=O)[C@H](CO)NC(=O)[C@H](CCCCN)NC(=O)[C@H]([C@@H](C)O)NC(=O)[C@H](Cc2c[nH]c3ccccc23)NC(=O)[C@H](CCCNC(=N)N)NC(=O)CNC(=O)[C@@H](N)CSSC[C@@H](C(=O)O)NC(=O)[C@H](Cc2ccccc2)NC1=O [BT40] (H-CGRWTKSIPPIFC-OH; disulfide 1-13 (inferred); N-terminus and C-terminus assumed)
- IC50: > 50 µM

SMILES: CC[C@H](C)[C@@H]1NC(=O)[C@H](CCCCN)NC(=O)[C@@H]2CCCN2C(=O)[C@@H](NC(=O)[C@H](CCCNC(=N)N)NC(=O)CN)CSSC[C@@H](C(=O)N[C@@H](Cc2ccccc2)C(=O)O)NC(=O)[C@H](CCCCN)NC(=O)[C@H](CCCCN)NC(=O)[C@H](CC(C)C)NC1=O [BT41] (H-GRCPKILKKCF-OH; disulfide 3-10)
- IC50: > 50 µM

SMILES: CC[C@H](C)[C@@H]1NC(=O)[C@H](CCCCN)NC(=O)[C@@H]2CCCN2C(=O)[C@H](C)NC(=O)[C@H](CCCNC(=N)N)NC(=O)CNC(=O)[C@@H](N)CSSC[C@@H](C(=O)N[C@@H](Cc2ccccc2)C(=O)O)NC(=O)[C@H](CCCCN)NC(=O)[C@H](CCCCN)NC(=O)[C@H](CC(C)C)NC1=O [BT42] (H-CGRAPKILKKCF-OH; disulfide 1-11)
- IC50: > 50 µM

SMILES: CC[C@H](C)[C@@H]1NC(=O)[C@H](CCCCN)NC(=O)[C@@H]2CCCN2C(=O)[C@@H](NC(=O)[C@H](CCCNC(=N)N)NC(=O)CN)CSSC[C@@H](C(=O)N[C@@H](Cc2ccccc2)C(=O)O)NC(=O)[C@H](CCCNC(=N)N)NC(=O)[C@H](CCC(N)=O)NC(=O)[C@H](CC(C)C)NC1=O [BT43] (H-GRCPKILQRCF-OH; disulfide 3-10)
- IC50: > 50 µM

SMILES: CC[C@H](C)[C@@H]1NC(=O)[C@H](CCCCN)NC(=O)[C@@H]2CCCN2C(=O)[C@H](C)NC(=O)[C@H](CCCNC(=N)N)NC(=O)CNC(=O)[C@@H](N)CSSC[C@@H](C(=O)N[C@@H](Cc2ccccc2)C(=O)O)NC(=O)[C@H](CCCNC(=N)N)NC(=O)[C@H](CCC(N)=O)NC(=O)[C@H](CC(C)C)NC1=O [BT44] (H-CGRAPKILQRCF-OH; disulfide 1-11 (inferred); N-terminus and C-terminus assumed)
- IC50: > 50 µM

Results, then the compound that gave them:

- IC50: > 50 µM
SMILES: CC[C@H](C)[C@@H]1NC(=O)[C@@H]2CCCN2C(=O)[C@@H]2CCCN2C(=O)[C@H]([C@@H](C)CC)NC(=O)[C@H](CO)NC(=O)[C@H](CCCCN)NC(=O)[C@H]([C@@H](C)O)NC(=O)[C@H](C)NC(=O)[C@H](CCCNC(=N)N)NC(=O)CNC(=O)[C@@H](N)CSSC[C@@H](C(=O)O)NC(=O)[C@H](Cc2ccccc2)NC1=O [BT30] (H-CGRATKSIPPIFC-OH; disulfide 1-13 (inferred); N-terminus and C-terminus assumed)

- IC50: > 50 µM
SMILES: CC[C@H](C)[C@@H]1NC(=O)[C@H](CO)NC(=O)[C@H](CCCCN)NC(=O)[C@H]([C@@H](C)O)NC(=O)[C@H](C)NC(=O)[C@H](CCCNC(=N)N)NC(=O)CNC(=O)[C@@H](N)CSSC[C@@H](C(=O)O)NC(=O)[C@H](Cc2ccccc2)NC(=O)[C@H](C)NC(=O)[C@@H]2CCCN2C(=O)[C@@H]2CCCN2C1=O [BT31] (H-CGRATKSIPPAFC-OH; disulfide 1-13 (inferred); N-terminus and C-terminus assumed)

- IC50: > 50 µM
SMILES: CC[C@H](C)[C@@H]1NC(=O)[C@H](CO)NC(=O)[C@H](CCCCN)NC(=O)[C@H]([C@@H](C)O)NC(=O)[C@H](C)NC(=O)[C@H](CCCNC(=N)N)NC(=O)CNC(=O)[C@@H](N)CSSC[C@@H](C(=O)O)NC(=O)[C@H](CCCNC(=N)N)NC(=O)[C@H](C)NC(=O)[C@H](CCC(N)=O)NC(=O)[C@@H]2CCCN2C(=O)[C@@H]2CCCN2C1=O [BT34] (H-CGRATKSIPPQARC-OH; disulfide 1-14)

- IC50: > 50 µM
SMILES: CC[C@H](C)[C@@H]1NC(=O)[C@H](CO)NC(=O)[C@H](CCCCN)NC(=O)[C@H]([C@@H](C)O)NC(=O)[C@H](Cc2c[nH]c3ccccc23)NC(=O)CNC(=O)[C@@H](N)CSSC[C@@H](C(=O)O)NC(=O)[C@@H]2CCCN2C(=O)[C@H](CCCCN)NC(=O)[C@@H]2CCCN2C(=O)[C@@H]2CCCN2C1=O [BT37] (H-CGWTKSIPPKPC-OH; disulfide 1-12)

- IC50: > 50 µM
SMILES: CC[C@H](C)[C@@H]1NC(=O)[C@H](CO)NC(=O)[C@H](CCCCN)NC(=O)[C@H]([C@@H](C)O)NC(=O)[C@H](Cc2c[nH]c3ccccc23)NC(=O)[C@H](CCCNC(=N)N)NC(=O)CNC(=O)[C@@H](N)CSSC[C@@H](C(=O)O)NC(=O)[C@@H]2CCCN2C(=O)[C@H](CCCCN)NC(=O)[C@@H]2CCCN2C(=O)[C@@H]2CCCN2C1=O [BT38] (H-CGRWTKSIPPKPC-OH; disulfide 1-13 (inferred); N-terminus and C-terminus assumed)

- Residual trypsin activity (peptide 0.000098 μM): 99.3 ± 5.3%
- Residual trypsin activity (peptide 0.00098 μM): 104.3 ± 6.0%
- Residual trypsin activity (peptide 0.0098 μM): 100.7 ± 5.0%
- Residual trypsin activity (peptide 0.02439 μM): 67.4 ± 2.6%
- Residual trypsin activity (peptide 0.0390 μM): 42.7 ± 2.9%
- Residual trypsin activity (peptide 0.0488 μM): 27.3 ± 5.5%
- Residual trypsin activity (peptide 0.07317 μM): 10.8 ± 1.6%
- Residual trypsin activity (peptide 0.098 μM): 6.3 ± 0.4%
- Residual trypsin activity (peptide 0.98 μM): 0.4 ± 0.0%
- Residual trypsin activity (peptide 9.76 μM): 0.0 ± 0.0%
- IC50: 0.03 µM
SMILES: CC[C@H](C)[C@@H]1NC(=O)[C@@H]2CCCN2C(=O)[C@@H]2CCCN2C(=O)[C@H]([C@@H](C)CC)NC(=O)[C@H](CO)NC(=O)[C@H](CCCCN)NC(=O)[C@H]([C@@H](C)O)NC(=O)[C@@H](NC(=O)[C@@H](N)CCCNC(=N)N)CSSC[C@@H](C(=O)N[C@@H](Cc2ccccc2)C(=O)O)NC1=O [BT45] (H-RCTKSIPPICF-OH; disulfide 2-10; C-terminus assumed)

- inhibitory activity against trypsin (in words): excellent trypsin inhibitory activities
- Ki (Ki=IC50/(1+S/Km), Km 0.33 mM, read-out: Ki): 0.01 µM
- IC50: 0.07 µM
SMILES: CC[C@H](C)[C@@H]1NC(=O)[C@@H]2CCCN2C(=O)[C@@H]2CCCN2C(=O)[C@H]([C@@H](C)CC)NC(=O)[C@H](CO)NC(=O)[C@H](CCCCN)NC(=O)[C@H]([C@@H](C)O)NC(=O)[C@H](C)NC(=O)[C@H](CCCNC(=N)N)NC(=O)[C@@H]2C[C@@H](O)CN2C(=O)[C@@H](N)CSSC[C@@H](C(=O)N[C@@H](Cc2ccccc2)C(=O)O)NC1=O [BT46] (H-C[Hyp]RATKSIPPICF-OH; disulfide 1-12; C-terminus assumed)
